Assay results reported in ChEMBL document CHEMBL1201862, “PubChem BioAssay data set” (2004).
The source made the active and inactive calls.

Columns and labels:
[1] = microbe, parasite or virus in culture; format: functional; conditions: Mycobacterium tuberculosis
[2] = biological target: Melanocortin receptor 4 (Homo sapiens, UniProt P32245); test: MC4R antagonist potency on cAMP, dose response, cell-based, TR-FRET, biased antagonists (AID 602298); format: functional;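 note: antagonist potency against agonist-stimulated cAMP production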
[3] = nonselective inhibitors of cellular cAMP signaling, dose response, counter-screen for MC4R biased antagonist project, cell-based, TR-FRET cAMP detection (AID 602305); format: functional;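 note: U2OS cells stimulated with forskolin near its EC80 as the cAMP inducer; potency is for inhibition of forskolin-stimulated cAMP signaling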
[4] = biological target: Voltage-gated inwardly rectifying potassium channel KCNH2 (Homo sapiens, UniProt Q12809); test: hERG protection from proarrhythmic block, potency, dose response, cell-based, thallium flux (AID 2121); format: ADME
[5] = biological target: 26S proteasome non-ATPase regulatory subunit 14 (Homo sapiens, UniProt O00487); test: inhibition of proteasome subunit RPN11 – biochemical, fluorescence polarization, uHTS hits, confirmation (AID 602368); format: functional
[6] = biological target: 72 kDa type IV collagenase (Homo sapiens, UniProt P08253); test: Dose Response validation of uHTS RPN11 inhibitor hits using a MMP-2 Fluorescence assay.; format: functional
[7] = biological target: Prothrombin (Bos taurus, UniProt P00735); test: thrombin inhibition, dose response, biochemical, fluorescence polarization, uHTS hits (AID 602369); format: functional
[8] = Luminescence-based cell-based high throughput dose response assay to identify activators of the DAF-12 from the parasite S. stercoralis (ssDAF-12).; format: functional
[9] = biological target: T1, Oxysterols receptor LXR-beta (Homo sapiens, UniProt P55055); test: LXR agonists, Gal4 luciferase reporter, dose response, counter-screen for ssDAF-12 agonist project, cell-based, luminescence, HEK293, S. stercoralis campaign (AID 720737); format: functional; conditions: read-out: IC50 (the source's name)
T1 sequence (P55055 whole entry): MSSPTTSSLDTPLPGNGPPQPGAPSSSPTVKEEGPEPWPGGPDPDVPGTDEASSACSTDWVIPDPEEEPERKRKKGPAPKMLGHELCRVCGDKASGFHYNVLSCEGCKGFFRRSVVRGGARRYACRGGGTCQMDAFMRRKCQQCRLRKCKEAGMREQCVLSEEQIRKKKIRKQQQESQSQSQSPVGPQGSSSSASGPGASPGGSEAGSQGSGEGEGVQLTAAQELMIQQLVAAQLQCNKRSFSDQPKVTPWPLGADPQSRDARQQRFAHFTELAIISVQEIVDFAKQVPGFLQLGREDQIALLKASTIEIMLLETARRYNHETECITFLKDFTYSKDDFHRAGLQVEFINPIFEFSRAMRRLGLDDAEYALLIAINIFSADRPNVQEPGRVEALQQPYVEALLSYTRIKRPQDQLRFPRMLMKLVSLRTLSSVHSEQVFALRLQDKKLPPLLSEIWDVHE

[10] = test system: Jurkat; test: antigen receptor-induced NF-kB inhibitors, dose response, Jurkat, luciferase reporter, luminescence, B- and T-cell (AID 489004); format: functional, cell-based; conditions: Homo sapiens;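 note: NF-kB luciferase reporter Jurkat cells stimulated with PMA plus ionomycin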
[11] = cytotoxicity in HEK-293T NF-kB-Luc cells, dose response, cytotoxicity control for B/T-cell NF-kB inhibitor project, cell-based, uHTS hits (AID 489019); format: functional;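 note: IC50 reflects cytotoxicity as loss of cell viability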
[12] = test system: INS1; test: beta cell apoptosis inhibitors, cytokine rescue, dose response, luminescence, retest (AID 449756); format: functional, cell-based; conditions: Rattus norvegicus;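 note: cell death triggered by IL-1 beta plus TNF-alpha plus IFN-gamma mixture; protective hits raise ATP signal compared with cytokine alone wells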
[13] = Shn3 3'UTR reporter inhibitors, dose response, cell-based, Clone20 osteoblasts, firefly luciferase, cherry-picked (AID 624132); format: functional;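 note: firefly luciferase luminescence from reporter carrying the Shn3 3'UTR in osteoblasts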
[14] = HepG2 cell cytotoxicity, dose response, cytotoxicity control for Shn3 inhibitor project, CellTiter-Glo, cherry-picked (AID 624134); format: functional, cell-based
[15] = control 3'UTR Renilla luciferase suppression, dose response, counter-screen for Shn3 inhibitor project, cell-based, Clone20-Shn3RL, cherry-picked (AID 624133); format: functional
[16] = biological target: Protein Wnt-3a (Mus musculus, UniProt P27467); test: Wnt3a-driven reporter signaling inhibition, dose response, selectivity assay for Gli-SUFU antagonist project, Wnt-LIGHT cells, luminescence (AID 651570); format: functional; conditions: read-out: IC50_Mean;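 note: Wnt-LIGHT reporter cells stimulated with conditioned medium from Wnt3a-producing cells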
[17] = inhibitors of clade B AD8 Env fusion, dose response, cell-based, cherry-pick (AID 652062); format: functional;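 note: luciferase signal from cell-cell fusion driven by HIV-1 clade B AD8 Env; potency is for inhibitors of fusion seen as a drop in luminescence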
[18] = biological target: T2, COUP transcription factor 2 (Homo sapiens, UniProt P24468); test: Luminescence-based cell-based high throughput dose response assay to identify inhibitors of COUP-TFII (NR2F2).; format: functional;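 note: HEK293 cells transiently cotransfected with COUP-TFII expression vector and reporter; luciferase reporter luminescence driven by COUP-TFII from the pX2-168 reporter plasmid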
T2 sequence (P24468 whole entry): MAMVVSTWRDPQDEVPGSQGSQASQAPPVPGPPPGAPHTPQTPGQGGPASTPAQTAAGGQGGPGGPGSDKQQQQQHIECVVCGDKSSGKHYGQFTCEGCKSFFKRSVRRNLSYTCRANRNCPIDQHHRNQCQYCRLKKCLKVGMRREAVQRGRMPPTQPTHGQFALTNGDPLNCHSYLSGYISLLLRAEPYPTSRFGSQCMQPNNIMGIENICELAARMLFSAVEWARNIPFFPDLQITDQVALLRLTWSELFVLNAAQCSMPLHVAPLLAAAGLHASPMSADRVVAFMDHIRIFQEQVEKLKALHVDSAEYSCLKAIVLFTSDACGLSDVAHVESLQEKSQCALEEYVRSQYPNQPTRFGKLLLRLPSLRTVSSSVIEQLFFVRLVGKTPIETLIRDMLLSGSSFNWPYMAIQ

[19] = HEK293T cytotoxicity, dose response, cytotoxicity control for miR-122 modulator project, cell-based, inhibitor set, cherry-pick, set 2 (AID 720697); format: functional
[20] = HEK293T cytotoxicity, dose response, cytotoxicity control for miR-122 modulator project, cell-based, activator set, cherry-pick (AID 720690); format: functional;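 note: HEK293T human cells scored for general mammalian cytotoxicity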
[21] = CAL PDZ domain peptide-binding inhibitors, dose response, biochemical, fluorescence polarization, untagged CAL PDZ, cherry-pick, set 2 (AID 602254); format: functional
[22] = biological target: Adenosylmethionine-8-amino-7-oxononanoate aminotransferase (Mycobacterium tuberculosis, UniProt P9WQ81); test: Mycobacterium tuberculosis BioA enzyme inhibitor Measured in Biochemical System Using Plate Reader - 2163-02_Inhibitor_Dose_CherryPick_Activity.; format: functional, Mycobacterium tuberculosis UT205
[23] = HEp-2 cell cytotoxicity, dose response, cytotoxicity control for RSV inhibitor project, HTS (AID 2410); format: functional; conditions: human respiratory syncytial virus
[24] = biological target: Interleukin-8 (Homo sapiens, UniProt P10145); test: Dose Response confirmation of uHTS small molecule hits for cystic fibrosis induced NFkb Inhibitors in a PAF-induced IL8 counterscreen.; format: functional; conditions: read-out: IC50_Mean
[25] = biological target: T3, Coagulation factor XII (Homo sapiens, UniProt P00748); format: functional;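 note: activated factor XIIa alpha cleaving a fluorogenic AMC peptide substrate; inhibitor potency from loss of enzyme activity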
T3 sequence (P00748 whole entry): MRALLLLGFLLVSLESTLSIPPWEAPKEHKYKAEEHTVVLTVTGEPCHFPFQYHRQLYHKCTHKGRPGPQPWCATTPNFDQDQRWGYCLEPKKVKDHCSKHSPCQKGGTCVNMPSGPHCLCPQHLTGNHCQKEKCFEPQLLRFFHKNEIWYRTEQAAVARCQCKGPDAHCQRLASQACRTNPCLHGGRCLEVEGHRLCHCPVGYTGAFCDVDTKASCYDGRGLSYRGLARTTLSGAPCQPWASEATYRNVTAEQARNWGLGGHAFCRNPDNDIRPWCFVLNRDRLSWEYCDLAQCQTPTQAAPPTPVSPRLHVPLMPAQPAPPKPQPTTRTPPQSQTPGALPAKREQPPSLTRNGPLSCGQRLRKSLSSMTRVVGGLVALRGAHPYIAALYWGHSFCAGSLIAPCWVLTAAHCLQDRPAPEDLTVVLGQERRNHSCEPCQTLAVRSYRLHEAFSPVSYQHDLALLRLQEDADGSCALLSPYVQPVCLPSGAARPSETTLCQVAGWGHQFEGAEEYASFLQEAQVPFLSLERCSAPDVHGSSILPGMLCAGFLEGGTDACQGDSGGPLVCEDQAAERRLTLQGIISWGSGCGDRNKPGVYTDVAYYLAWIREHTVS

[26] = biological target: T4, Insulin-degrading enzyme (Homo sapiens, UniProt P14735); test: activators of recombinant IDE enzyme, dose response, counter-screen for IDE activator project, biochemical, fluorescence polarization (AID 588681)
T4 sequence (P14735 whole entry): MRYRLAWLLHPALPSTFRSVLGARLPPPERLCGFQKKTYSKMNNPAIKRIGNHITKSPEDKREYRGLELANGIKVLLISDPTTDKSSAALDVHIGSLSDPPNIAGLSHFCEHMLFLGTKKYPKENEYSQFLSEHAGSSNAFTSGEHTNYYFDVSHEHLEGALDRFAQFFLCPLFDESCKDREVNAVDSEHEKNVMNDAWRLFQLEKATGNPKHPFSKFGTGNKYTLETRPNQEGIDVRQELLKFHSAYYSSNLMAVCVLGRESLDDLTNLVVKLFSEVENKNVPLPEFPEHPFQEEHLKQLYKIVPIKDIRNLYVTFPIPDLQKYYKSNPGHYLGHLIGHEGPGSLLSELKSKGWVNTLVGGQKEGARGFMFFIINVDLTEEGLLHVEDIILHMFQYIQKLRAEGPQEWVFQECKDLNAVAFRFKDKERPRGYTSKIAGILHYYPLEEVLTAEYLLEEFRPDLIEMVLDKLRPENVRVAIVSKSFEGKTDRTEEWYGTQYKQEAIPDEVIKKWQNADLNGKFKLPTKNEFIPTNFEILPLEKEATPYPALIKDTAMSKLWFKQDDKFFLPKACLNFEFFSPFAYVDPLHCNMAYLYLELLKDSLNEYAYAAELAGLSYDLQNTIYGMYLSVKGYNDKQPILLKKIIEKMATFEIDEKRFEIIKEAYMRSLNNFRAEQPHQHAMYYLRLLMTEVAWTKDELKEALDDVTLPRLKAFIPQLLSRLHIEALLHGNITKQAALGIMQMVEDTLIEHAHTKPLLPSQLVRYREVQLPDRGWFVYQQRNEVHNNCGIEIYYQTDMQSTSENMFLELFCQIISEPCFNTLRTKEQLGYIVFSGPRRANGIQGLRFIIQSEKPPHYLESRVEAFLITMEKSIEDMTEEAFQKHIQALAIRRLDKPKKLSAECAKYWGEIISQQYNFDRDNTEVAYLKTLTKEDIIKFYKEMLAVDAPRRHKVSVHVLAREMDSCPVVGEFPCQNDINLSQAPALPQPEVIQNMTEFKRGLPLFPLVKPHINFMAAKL

[27] = biological target: T4, Insulin-degrading enzyme; test: activators of endogenous IDE in HEK cells, dose response, cell-based, fluorescence polarization (AID 588439); format: functional
[28] = test system: HEK293; test: HEK cell cytotoxicity by LDH release, dose response, cytotoxicity control for IDE activator project, fluorescence, HEK cells (AID 588440); format: functional, cell-based; conditions: Homo sapiens;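 note: cytotoxicity by LDH release measuring loss of membrane integrity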
[29] = test system: HEK293; test: optical interference in Abeta FP readout, dose response, artefact control for IDE activator project, biochemical, fluorescence polarization (AID 588442); format: functional, cell-based; conditions: Homo sapiens

Sequence of Melanocortin receptor 4 (P32245 whole entry): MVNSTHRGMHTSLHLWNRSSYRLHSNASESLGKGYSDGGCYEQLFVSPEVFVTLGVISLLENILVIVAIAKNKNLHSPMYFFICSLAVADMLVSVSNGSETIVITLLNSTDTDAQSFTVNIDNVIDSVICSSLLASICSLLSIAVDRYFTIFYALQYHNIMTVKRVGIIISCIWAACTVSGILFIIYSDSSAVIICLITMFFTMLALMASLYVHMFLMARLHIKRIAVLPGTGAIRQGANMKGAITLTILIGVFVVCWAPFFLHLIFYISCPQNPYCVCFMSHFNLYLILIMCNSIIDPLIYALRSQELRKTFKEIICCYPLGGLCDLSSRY
Sequence of Adenosylmethionine-8-amino-7-oxononanoate aminotransferase (P9WQ81 whole entry): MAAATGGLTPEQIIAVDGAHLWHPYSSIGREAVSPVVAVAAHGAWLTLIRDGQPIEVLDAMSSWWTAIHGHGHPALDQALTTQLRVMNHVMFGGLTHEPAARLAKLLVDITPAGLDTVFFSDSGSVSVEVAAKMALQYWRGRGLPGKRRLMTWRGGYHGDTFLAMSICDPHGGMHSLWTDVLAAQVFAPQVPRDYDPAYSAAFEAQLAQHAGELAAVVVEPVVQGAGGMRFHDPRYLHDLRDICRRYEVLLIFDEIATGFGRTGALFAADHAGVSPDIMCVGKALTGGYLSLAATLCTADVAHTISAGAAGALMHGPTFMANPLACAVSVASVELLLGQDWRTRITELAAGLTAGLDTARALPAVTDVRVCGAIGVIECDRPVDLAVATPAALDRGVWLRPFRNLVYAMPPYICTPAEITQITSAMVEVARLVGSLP
Sequence of Protein Wnt-3a (P27467 whole entry, the tested form may be a part): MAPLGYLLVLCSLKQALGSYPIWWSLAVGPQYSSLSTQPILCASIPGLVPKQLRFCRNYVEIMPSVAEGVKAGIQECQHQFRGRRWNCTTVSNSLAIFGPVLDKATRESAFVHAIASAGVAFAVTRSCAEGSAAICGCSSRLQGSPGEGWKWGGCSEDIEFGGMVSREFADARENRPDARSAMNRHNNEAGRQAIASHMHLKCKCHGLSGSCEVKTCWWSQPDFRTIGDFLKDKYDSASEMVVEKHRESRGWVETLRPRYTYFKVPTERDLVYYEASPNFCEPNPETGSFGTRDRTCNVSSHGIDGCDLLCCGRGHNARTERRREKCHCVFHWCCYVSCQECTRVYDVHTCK
Sequence of 72 kDa type IV collagenase (P08253 whole entry): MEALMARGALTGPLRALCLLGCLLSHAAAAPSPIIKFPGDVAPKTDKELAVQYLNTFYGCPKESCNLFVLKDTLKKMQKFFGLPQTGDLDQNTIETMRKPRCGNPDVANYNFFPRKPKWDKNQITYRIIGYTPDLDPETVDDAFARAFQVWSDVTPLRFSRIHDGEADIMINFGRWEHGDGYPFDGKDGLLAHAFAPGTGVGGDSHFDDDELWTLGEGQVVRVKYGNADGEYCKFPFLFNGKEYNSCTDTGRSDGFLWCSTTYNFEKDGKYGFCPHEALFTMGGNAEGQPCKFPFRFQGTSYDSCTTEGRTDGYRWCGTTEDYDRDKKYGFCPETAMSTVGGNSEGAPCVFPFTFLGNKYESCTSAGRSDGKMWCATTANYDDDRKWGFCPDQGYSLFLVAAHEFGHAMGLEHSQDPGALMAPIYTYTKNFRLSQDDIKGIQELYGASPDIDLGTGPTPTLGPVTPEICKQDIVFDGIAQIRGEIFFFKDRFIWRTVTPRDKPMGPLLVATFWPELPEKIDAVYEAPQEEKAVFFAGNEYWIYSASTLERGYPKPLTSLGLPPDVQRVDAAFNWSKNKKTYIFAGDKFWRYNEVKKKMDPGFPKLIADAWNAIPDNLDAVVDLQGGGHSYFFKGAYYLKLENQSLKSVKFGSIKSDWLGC
Sequence of 26S proteasome non-ATPase regulatory subunit 14 (O00487 whole entry): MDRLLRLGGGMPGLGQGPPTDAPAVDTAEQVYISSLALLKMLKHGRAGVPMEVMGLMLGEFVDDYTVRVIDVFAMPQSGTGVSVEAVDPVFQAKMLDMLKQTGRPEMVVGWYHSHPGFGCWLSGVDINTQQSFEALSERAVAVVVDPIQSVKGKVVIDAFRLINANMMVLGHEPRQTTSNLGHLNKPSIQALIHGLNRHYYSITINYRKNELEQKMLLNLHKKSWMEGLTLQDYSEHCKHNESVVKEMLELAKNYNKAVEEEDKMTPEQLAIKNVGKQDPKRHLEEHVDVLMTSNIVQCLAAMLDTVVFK
Sequence of Voltage-gated inwardly rectifying potassium channel KCNH2 (Q12809 whole entry): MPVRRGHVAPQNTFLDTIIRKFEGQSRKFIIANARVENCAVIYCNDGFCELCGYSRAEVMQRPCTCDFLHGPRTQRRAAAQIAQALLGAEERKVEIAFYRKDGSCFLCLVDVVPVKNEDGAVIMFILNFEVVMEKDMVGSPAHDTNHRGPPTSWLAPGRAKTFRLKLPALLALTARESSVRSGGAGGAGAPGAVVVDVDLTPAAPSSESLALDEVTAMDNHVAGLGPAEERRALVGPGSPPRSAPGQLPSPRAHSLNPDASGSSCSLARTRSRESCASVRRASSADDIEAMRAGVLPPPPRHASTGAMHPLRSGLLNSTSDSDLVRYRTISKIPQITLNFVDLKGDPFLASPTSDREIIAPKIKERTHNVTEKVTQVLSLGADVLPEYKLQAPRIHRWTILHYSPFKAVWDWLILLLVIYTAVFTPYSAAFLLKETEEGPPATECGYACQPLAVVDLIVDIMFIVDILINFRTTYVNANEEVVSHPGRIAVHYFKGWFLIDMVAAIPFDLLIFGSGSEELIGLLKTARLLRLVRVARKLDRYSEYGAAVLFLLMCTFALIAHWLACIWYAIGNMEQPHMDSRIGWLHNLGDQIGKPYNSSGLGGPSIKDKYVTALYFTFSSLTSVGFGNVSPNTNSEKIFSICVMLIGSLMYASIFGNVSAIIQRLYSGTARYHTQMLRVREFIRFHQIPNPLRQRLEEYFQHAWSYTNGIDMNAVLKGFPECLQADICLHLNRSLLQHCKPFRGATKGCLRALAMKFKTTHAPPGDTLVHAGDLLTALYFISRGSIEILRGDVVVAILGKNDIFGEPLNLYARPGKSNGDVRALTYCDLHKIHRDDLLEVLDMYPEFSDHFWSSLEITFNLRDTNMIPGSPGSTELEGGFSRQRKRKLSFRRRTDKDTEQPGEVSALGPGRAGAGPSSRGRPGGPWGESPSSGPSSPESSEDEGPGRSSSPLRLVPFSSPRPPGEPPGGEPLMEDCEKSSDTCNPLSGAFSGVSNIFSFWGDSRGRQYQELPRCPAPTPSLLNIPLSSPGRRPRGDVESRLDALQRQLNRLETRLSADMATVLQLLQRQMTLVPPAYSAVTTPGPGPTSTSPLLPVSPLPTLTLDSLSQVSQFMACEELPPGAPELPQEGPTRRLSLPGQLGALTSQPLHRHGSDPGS
Sequence of Interleukin-8 (P10145 whole entry): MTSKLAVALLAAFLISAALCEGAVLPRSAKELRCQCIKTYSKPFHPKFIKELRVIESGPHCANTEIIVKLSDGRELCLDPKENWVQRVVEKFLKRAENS

**Q.** What does the source list for COc1cc2c(cc1NC(=O)CN1C(=O)NC3(CCc4ccccc43)C1=O)oc1ccccc12 (configuration not stated)?
**A.** CC50 [1]: 23.6 µM (active); IC50 [2]: > 64.6 µM (inactive); IC50 [3]: > 64.6 µM (inactive)

**Q.** What does the source list for O=C(CSc1nc2cc(Cl)ccc2s1)c1cc2ccccc2o1?
**A.** EC50 [4]: 0.35 µM (active); IC50 [5]: 24.5 µM (active); IC50 [6]: 18.8 µM (active); IC50 [7]: 28.5 µM (active); IC50 [8]: > 67.5 µM (inactive); EC50 [9]: > 67.5 µM (inactive)

**Q.** Which CC50 [1] does the source give for Cc1ccc(OCCN2CCN(c3ncnc4sc(C)c(C)c34)CC2)cc1 here?
**A.** > 40 µM (active)

**Q.** And the IC50 [10]?
**A.** > 80 µM (inactive)

**Q.** And the IC50 [11]?
**A.** > 80 µM (inactive)

**Q.** What about the AC50 [12] of the same compound?
**A.** 2.36 µM (active)

**Q.** And the AC50 [13]?
**A.** 0.754 µM (active)

**Q.** And the AC50 [14]?
**A.** 1.5 µM (active)

**Q.** And the AC50 [15]?
**A.** 2.05 µM (active)

**Q.** What about the IC50 [16] of the same compound?
**A.** 0.282 µM (active)

**Q.** What about the AC50 [17] of the same compound?
**A.** 1.78 µM (active)

**Q.** And the IC50 [18]?
**A.** 4.98 µM (active)

**Q.** And the AC50 [19]?
**A.** 13.6 µM (active)

**Q.** What about the AC50 [20] of the same compound?
**A.** 33.6 µM (active)

**Q.** With CC(C)(C)c1ccc(/C=N/N2CCN(c3ccccn3)CC2)cc1 as the compound, how does the AC50 [21] read?
**A.** 91.5 µM (active)

**Q.** With CC(=N)C1=C(O)C2(C)C(=CC1=O)Oc1c(C(C)=O)c(O)c(C)c(O)c12 (configuration not stated) as the compound, how does the IC50 [2] read?
**A.** > 64.6 µM (inactive)

**Q.** And the IC50 [3]?
**A.** > 64.6 µM (inactive)

**Q.** With Cc1cccc(C2c3[nH]c4ccccc4c3CCN2C(=O)CN2CCOC2=O)n1 (configuration not stated) as the compound, how does the AC50 [22] read?
**A.** 7.05 µM (active)

**Q.** Which results are given for CC(C)C[C@H](CO)Nc1nc(Nc2cccc(Cl)c2)c2ncn(C(C)C)c2n1?
**A.** CC50 [23]: 44.4 µM (active); IC50 [24]: 5.97 µM (active)

**Q.** Which IC50 [25] does the source give for COc1ccc(C(=O)N/N=C/c2cc3ccccc3nc2O)cc1 here?
**A.** > 50 µM (inactive)

**Q.** What about the EC50 [26] of the same compound?
**A.** > 54.7 µM (inactive)

**Q.** And the EC50 [27]?
**A.** > 54.7 µM (inactive)

**Q.** What about the IC50 [28] of the same compound?
**A.** > 89.1 µM (inactive)

**Q.** What about the EC50 [29] of the same compound?
**A.** > 55.9 µM (inactive)
